How the values were obtained:
[1] = molecular target: T1, Human immunodeficiency virus type 1 protease (Human immunodeficiency virus 1, UniProt Q72874); test: Inhibitory concentration against Protease
[2] = molecular target: T1, Human immunodeficiency virus type 1 protease; test: Evaluated for inhibition of Protease after CLND/MS correction from the crude mixture
[3] = molecular target: T1, Human immunodeficiency virus type 1 protease; test: Evaluated for inhibition of Protease after resynthesis and purification
[4] = molecular target: T1, Human immunodeficiency virus type 1 protease; test: Evaluated for inhibition of Protease from the crude plate mixture

| Structure (SMILES) | IC50 [1] [µM] | other results |
| --- | --- | --- |
| CC(C)(C)NC(=O)C1(CCc2ccccc2)OC(O)=C(CCc2ccccc2)C1=O (configuration not stated) | 3 |  |
| CC(C)(C)NC(=O)C1(C)OC(O)=C(CCc2ccccc2)C1=O (configuration not stated) | 70 |  |
| CC(C)(C)NC(=O)C1(CCc2ccccc2)OC(O)=C(Cc2ccccc2)C1=O (configuration not stated) | 11 |  |
| CC(C)=CCCC(C)C1=C(O)C(CCc2ccccc2)(C(=O)NC(C)(C)C)OC1=O (configuration not stated) | 1 | IC50 [2]: 1.3 µM; IC50 [3]: 1.3 µM; IC50 [4]: 15 µM |
| CC(C)(C)NC(=O)C1(CCc2ccccc2)OC(O)=C(c2ccc(-c3ccccc3)cc2)C1=O (configuration not stated) | 27 |  |
| CNC(=O)C1(C)OC(O)=C(C(C)c2ccccc2)C1=O (configuration not stated) | 244 |  |
| CCCCNC(=O)C1(C)OC(O)=C(CCc2ccccc2)C1=O (configuration not stated) | > 100 |  |
| CC(C1=C(O)C(C)(C(=O)NC(C)(C)C)OC1=O)c1ccccc1 (configuration not stated) | 105 |  |
| CC(C1=C(O)OC(C(=O)NCCc2ccc(Cl)cc2)(C(C)C)C1=O)c1ccccc1 (configuration not stated) | 31 |  |
| COc1cc(CC2=C(O)C(C)(C(=O)NC(C)(C)C)OC2=O)cc(OC)c1OC (configuration not stated) | > 1000 |  |
| CN(C(=O)OC(C)(C)C)C1=C(O)C(CCc2ccccc2)(C(=O)NC(C)(C)C)OC1=O (configuration not stated) | 47 |  |
| CC(C)(C)NC(=O)C1(CCc2ccccc2)OC(O)=C(c2c[nH]c3ccccc23)C1=O (configuration not stated) | 107 |  |
| C[C@H](C1=C(O)[C@@](CCc2ccccc2)(C(=O)NCc2ccc(C(C)(C)C)cc2)OC1=O)c1ccccc1 |  | IC50 [3]: 5.4 µM |
| CC(C1=C(O)[C@@](CCc2ccccc2)(C(=O)NCc2ccc(C(C)(C)C)cc2)OC1=O)c1ccccc1 (some centres not stated) | 5 |  |
| COCCNC(=O)C1(C)OC(O)=C(C(C)c2ccccc2)C1=O (configuration not stated) | 224 |  |
| CN(C(=O)OC(C)(C)C)C1=C(O)C(CCc2ccccc2)(C(=O)NCC2CCCO2)OC1=O (configuration not stated) | 193 |  |
| CNC1=C(O)C(CCc2ccccc2)(C(=O)NCC2CCCO2)OC1=O (configuration not stated) | > 1000 |  |
| CC(C)(C)NC(=O)C1(CCc2ccccc2)OC(O)=C(c2ccc(C(C)(C)C)cc2)C1=O (configuration not stated) | 17 |  |
| COc1cc(CC2=C(O)C(C)(C(=O)NC3CC3)OC2=O)cc(OC)c1OC (configuration not stated) | > 1000 |  |
| CC(C1=C(O)C(CCc2ccccc2)(C(=O)NC(C)(C)C)OC1=O)c1ccccc1 (configuration not stated) | 4 | IC50 [2]: 4.1 µM; IC50 [3]: 2 µM; IC50 [4]: 6 µM |
| CC1(C(=O)NC2CC2)OC(O)=C(CCc2ccccc2)C1=O (configuration not stated) | 294 |  |
| CC(C)=CCCC(C)C1=C(O)C(C)(C(=O)NC(C)(C)C)OC1=O (configuration not stated) | 151 |  |
| COc1cc(CC2=C(O)C(CCc3ccccc3)(C(=O)NCC(C)(C)C)OC2=O)cc(OC)c1OC (configuration not stated) | > 1000 |  |
| C[C@H](C1=C(O)C(CCc2ccccc2)(C(=O)NCc2ccc(C(C)(C)C)cc2)OC1=O)c1ccccc1 (single isomer, unassigned) | 84 | IC50 [2]: 1.2 µM; IC50 [3]: 4.6 µM |

From ChEMBL document CHEMBL1146787, “Novel nonpeptidic inhibitors of HIV-1 protease obtained via a new multicomponent chemistry strategy” (Bioorg Med Chem Lett, 2004)
